The experiment has as its system peptide-specific IgG in plasma of prostate cancer patients and healthy donors. Description: Detection of peptide-specific IgG in plasma by ELISA. Type of experiment: binding, human. As to conditions: for IgG reactive to peptide in plasma: 1:100-diluted plasma. In general terms: An ELISA detects its analyte on a solid surface through an enzyme-linked reagent.
Where [1] appears, read: Prostate cancer patient 12, A11.
The mark [2] stands for this setting: Prostate cancer patient 14, A33.
Where [3] appears, read: Prostate cancer patient 17, A33.
The mark [4] stands for this setting: Prostate cancer patient 19, A33.
[5] abbreviates: Prostate cancer patient 20, A33.

In the case of “PSMA 456-463 (IEGNYTLR; UniProt Q04609 456-463, looked up, fragment)”, the “IgG reactive to peptide in plasma, Total (positive/tested)” value (from here on “IgG reactive … (positive/tested)”) runs as follows: (Healthy donors) 0/9; (Prostate cancer patients) 9/20. The “IgG reactive to peptide in plasma” value (Prostate cancer patient 4, A31) is on record as “+ (IgG reactive to a corresponding peptide was judged to be positive when a difference of the optical density (OD) in a 1:100-diluted plasma was more than 100)”; the “IgG reactive to peptide in plasma” value (Prostate cancer patient 5, A31) was “+ (IgG reactive to a corresponding peptide was judged to be positive when a difference of the optical density (OD) in a 1:100-diluted plasma was more than 100)”; the “IgG reactive to peptide in plasma” value (Prostate cancer patient 6, A31) is “+ (IgG reactive to a corresponding peptide was judged to be positive when a difference of the optical density (OD) in a 1:100-diluted plasma was more than 100)”; the “IgG reactive to peptide in plasma” value (Prostate cancer patient 9, A11) was “+ (IgG reactive to a corresponding peptide was judged to be positive when a difference of the optical density (OD) in a 1:100-diluted plasma was more than 100)”; the “IgG reactive to peptide in plasma” value under setting [1] was “+ (IgG reactive to a corresponding peptide was judged to be positive when a difference of the optical density (OD) in a 1:100-diluted plasma was more than 100)”; the “IgG reactive to peptide in plasma” value under setting [2] was “+ (IgG reactive to a corresponding peptide was judged to be positive when a difference of the optical density (OD) in a 1:100-diluted plasma was more than 100)”. Also, the “IgG reactive to peptide in plasma” value by setting is: under setting [3], “+ (IgG reactive to a corresponding peptide was judged to be positive when a difference of the optical density (OD) in a 1:100-diluted plasma was more than 100)”; under setting [4], “+ (IgG reactive to a corresponding peptide was judged to be positive when a difference of the optical density (OD) in a 1:100-diluted plasma was more than 100)”; under setting [5], “+ (IgG reactive to a corresponding peptide was judged to be positive when a difference of the optical density (OD) in a 1:100-diluted plasma was more than 100)”.
For PSMA 590-698, the “IgG reactive … (positive/tested)” value by setting is: (Healthy donors) 0/9; (Prostate cancer patients) 11/20. Moreover, the “IgG reactive to peptide in plasma” value by setting is: (Prostate cancer patient 4, A31) “+ (IgG reactive to a corresponding peptide was judged to be positive when a difference of the optical density (OD) in a 1:100-diluted plasma was more than 100)”; (Prostate cancer patient 5, A31) “+ (IgG reactive to a corresponding peptide was judged to be positive when a difference of the optical density (OD) in a 1:100-diluted plasma was more than 100)”; (Prostate cancer patient 6, A31) “+ (IgG reactive to a corresponding peptide was judged to be positive when a difference of the optical density (OD) in a 1:100-diluted plasma was more than 100)”; (Prostate cancer patient 8, A11) “+ (IgG reactive to a corresponding peptide was judged to be positive when a difference of the optical density (OD) in a 1:100-diluted plasma was more than 100)”; (Prostate cancer patient 9, A11) “+ (IgG reactive to a corresponding peptide was judged to be positive when a difference of the optical density (OD) in a 1:100-diluted plasma was more than 100)”; under setting [1], “+ (IgG reactive to a corresponding peptide was judged to be positive when a difference of the optical density (OD) in a 1:100-diluted plasma was more than 100)”. Moreover, the “IgG reactive to peptide in plasma” value is, setting by setting: (Prostate cancer patient 13, A11) “+ (IgG reactive to a corresponding peptide was judged to be positive when a difference of the optical density (OD) in a 1:100-diluted plasma was more than 100)”; under setting [2], “+ (IgG reactive to a corresponding peptide was judged to be positive when a difference of the optical density (OD) in a 1:100-diluted plasma was more than 100)”; under setting [3], “+ (IgG reactive to a corresponding peptide was judged to be positive when a difference of the optical density (OD) in a 1:100-diluted plasma was more than 100)”; under setting [4], “+ (IgG reactive to a corresponding peptide was judged to be positive when a difference of the optical density (OD) in a 1:100-diluted plasma was more than 100)”; under setting [5], “+ (IgG reactive to a corresponding peptide was judged to be positive when a difference of the optical density (OD) in a 1:100-diluted plasma was more than 100)”.
Take RIYNVIGTLR [PSMA 354-363]: the “IgG reactive … (positive/tested)” value by setting is: (Healthy donors) 0/9; (Prostate cancer patients) 2/20. Moreover, the “IgG reactive to peptide in plasma” value (Prostate cancer patient 6, A31) is recorded as “+ (IgG reactive to a corresponding peptide was judged to be positive when a difference of the optical density (OD) in a 1:100-diluted plasma was more than 100)” and the “IgG reactive to peptide in plasma” value under setting [5] is recorded as “+ (IgG reactive to a corresponding peptide was judged to be positive when a difference of the optical density (OD) in a 1:100-diluted plasma was more than 100)”.
As for “RNKSVILLGR (PSA 68-77) [PSA-derived peptide]”, the “IgG reactive … (positive/tested)” value (Healthy donors) is 0/9 and the “IgG reactive … (positive/tested)” value (Prostate cancer patients) was 0/20.
For SLYTKVVHYR [PSA 241-250] the same measures were 0/9 and 0/20.
With “SYKHEQVYIR (PAP 96-105) [PAP-derived peptide]”, the “IgG reactive … (positive/tested)” value by setting is: (Healthy donors) 1/9; (Prostate cancer patients) 1/20. Also, under setting [2], the “IgG reactive to peptide in plasma” value is “+ (IgG reactive to a corresponding peptide was judged to be positive when a difference of the optical density (OD) in a 1:100-diluted plasma was more than 100)”.

The values above are taken from patent US20100184699A1, “Peptide Derived From Prostate-Related Protein As Cancer Vaccine Candidate For Prostate Cancer Patient Who Is Positive For Hla-A3 Super-Type Allele Molecule” (priority 2005, published 2010).
